Test results taken from PMC2853757 (Analytical biochemistry, 2009).

Key:
[1] = biological target: V-ATPase (vacuolar proton translocating ATPase; catalytic subunit A) (Saccharomyces cerevisiae, UniProt P16140+P17255); test: ATP hydrolysis; format: biochemical
[2] = biological target: V-ATPase (vacuolar proton translocating ATPase) (Saccharomyces cerevisiae, UniProt P25515+P32563); test: BCECF flow cytometry dose response in living yeast; format: cell-based

Sequence of V-ATPase (vacuolar proton translocating ATPase; catalytic subunit A) (P17255 2-283): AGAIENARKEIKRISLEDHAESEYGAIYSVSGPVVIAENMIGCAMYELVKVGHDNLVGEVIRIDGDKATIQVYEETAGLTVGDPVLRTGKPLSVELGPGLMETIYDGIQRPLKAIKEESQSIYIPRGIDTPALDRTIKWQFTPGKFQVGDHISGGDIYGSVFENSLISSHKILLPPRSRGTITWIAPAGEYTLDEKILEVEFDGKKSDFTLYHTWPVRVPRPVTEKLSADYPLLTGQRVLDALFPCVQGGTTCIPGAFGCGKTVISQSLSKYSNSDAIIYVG
Sequence of V-ATPase (vacuolar proton translocating ATPase; catalytic subunit A) (P17255 738-1071): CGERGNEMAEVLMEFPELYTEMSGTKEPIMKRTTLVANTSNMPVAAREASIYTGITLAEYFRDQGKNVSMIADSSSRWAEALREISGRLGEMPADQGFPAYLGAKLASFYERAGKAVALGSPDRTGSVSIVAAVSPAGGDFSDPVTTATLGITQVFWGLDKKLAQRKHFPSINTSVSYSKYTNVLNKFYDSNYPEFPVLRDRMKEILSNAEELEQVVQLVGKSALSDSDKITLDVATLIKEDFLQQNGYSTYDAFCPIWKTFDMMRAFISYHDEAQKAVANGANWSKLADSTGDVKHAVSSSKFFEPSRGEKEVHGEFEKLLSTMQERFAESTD
Sequence of V-ATPase (vacuolar proton translocating ATPase; catalytic subunit A) (P16140 2-517): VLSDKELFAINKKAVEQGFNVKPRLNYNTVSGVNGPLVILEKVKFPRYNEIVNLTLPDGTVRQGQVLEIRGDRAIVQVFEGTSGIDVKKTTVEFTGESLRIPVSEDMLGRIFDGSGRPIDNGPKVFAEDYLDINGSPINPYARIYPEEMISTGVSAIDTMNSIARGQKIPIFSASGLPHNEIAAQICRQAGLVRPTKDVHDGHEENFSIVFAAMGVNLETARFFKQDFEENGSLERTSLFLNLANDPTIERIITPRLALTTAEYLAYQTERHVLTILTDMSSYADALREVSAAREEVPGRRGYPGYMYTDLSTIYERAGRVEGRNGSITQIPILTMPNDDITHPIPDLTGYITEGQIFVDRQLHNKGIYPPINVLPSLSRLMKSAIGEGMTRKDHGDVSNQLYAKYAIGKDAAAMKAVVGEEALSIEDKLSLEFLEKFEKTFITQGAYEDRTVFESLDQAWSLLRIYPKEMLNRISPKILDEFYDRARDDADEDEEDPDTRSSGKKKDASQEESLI
Sequence of V-ATPase (vacuolar proton translocating ATPase; catalytic subunit A) (P25515 whole entry partner): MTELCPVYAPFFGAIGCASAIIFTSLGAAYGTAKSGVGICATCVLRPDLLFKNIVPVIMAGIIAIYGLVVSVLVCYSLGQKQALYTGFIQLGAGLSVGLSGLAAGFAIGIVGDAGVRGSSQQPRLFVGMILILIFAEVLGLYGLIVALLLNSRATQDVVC
Sequence of V-ATPase (vacuolar proton translocating ATPase; catalytic subunit A) (P32563 2-840 partner): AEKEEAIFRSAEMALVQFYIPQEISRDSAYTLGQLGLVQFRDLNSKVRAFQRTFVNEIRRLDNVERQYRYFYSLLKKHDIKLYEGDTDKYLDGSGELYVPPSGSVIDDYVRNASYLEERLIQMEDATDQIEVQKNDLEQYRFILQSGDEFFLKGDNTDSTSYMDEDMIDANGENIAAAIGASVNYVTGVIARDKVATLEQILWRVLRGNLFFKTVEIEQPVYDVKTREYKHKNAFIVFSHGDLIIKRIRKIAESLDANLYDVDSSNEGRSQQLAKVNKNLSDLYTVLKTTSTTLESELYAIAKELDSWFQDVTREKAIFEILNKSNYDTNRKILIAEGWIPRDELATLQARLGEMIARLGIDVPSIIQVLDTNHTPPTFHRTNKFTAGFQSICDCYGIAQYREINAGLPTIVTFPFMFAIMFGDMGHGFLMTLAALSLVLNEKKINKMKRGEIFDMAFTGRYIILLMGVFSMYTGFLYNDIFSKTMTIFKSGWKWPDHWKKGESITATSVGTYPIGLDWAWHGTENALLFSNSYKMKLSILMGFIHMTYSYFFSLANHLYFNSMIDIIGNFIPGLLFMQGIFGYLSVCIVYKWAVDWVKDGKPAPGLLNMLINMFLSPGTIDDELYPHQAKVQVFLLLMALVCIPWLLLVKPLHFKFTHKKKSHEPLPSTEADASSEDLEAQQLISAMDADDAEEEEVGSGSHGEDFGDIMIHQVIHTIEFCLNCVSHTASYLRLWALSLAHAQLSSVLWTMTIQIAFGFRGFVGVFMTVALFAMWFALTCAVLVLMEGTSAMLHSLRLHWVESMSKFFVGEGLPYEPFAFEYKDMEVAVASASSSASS

| EC50 [1] [µM] | SMILES | EC50 [2] [µM] |
| --- | --- | --- |
| 24.7 | CCN(CC)C(=S)SSC(=S)N(CC)CC [disulfiram] |  |
|  | C/C=C/[C@H]1O[C@@](O)([C@@H](C)[C@H](O)[C@H](C)[C@H]2OC(=O)/C(OC)=C/C(C)=C/[C@@H](C)[C@@H](O)[C@@H](CC)[C@@H](O)[C@H](C)C/C(C)=C/C=C/[C@@H]2OC)C[C@@H](O[C@H]2C[C@@H](O)[C@H](OC(N)=O)[C@@H](C)O2)[C@@H]1C [concanamycin A] | 2.1 to 2.27 |
